Reference: ChEMBL document CHEMBL5393456, “Dichlorophenol hsd17b13 inhibitors and uses thereof” (2022)

Target: T1, 17-beta-hydroxysteroid dehydrogenase 13 (Homo sapiens, UniProt Q7Z5P4)
T1 sequence (Q7Z5P4 whole entry): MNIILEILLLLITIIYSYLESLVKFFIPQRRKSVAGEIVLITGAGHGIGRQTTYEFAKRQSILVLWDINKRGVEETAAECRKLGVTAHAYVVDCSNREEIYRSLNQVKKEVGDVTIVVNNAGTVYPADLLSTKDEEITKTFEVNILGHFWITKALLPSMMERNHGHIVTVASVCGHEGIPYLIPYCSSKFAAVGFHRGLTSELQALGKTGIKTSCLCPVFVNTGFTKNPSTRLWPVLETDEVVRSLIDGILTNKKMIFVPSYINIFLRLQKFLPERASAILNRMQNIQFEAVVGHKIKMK
Experiment: Inhibition of His-tagged HSD17B13 (unknown origin) expressed in Escherichia coli using estradiol as substrate incubated for 2 hrs and measured by LC/MS estrone detection assay

Row | SMILES | IC50 [nM]
1 | NS(=O)(=O)c1ccccc1Cn1cnc2cccc(NC(=O)c3cc(Cl)c(O)c(Cl)c3)c2c1=O | > 10000
2 | O=C(Nc1cccc2ncn(Cc3ccccc3N3CCOCC3)c(=O)c12)c1cc(Cl)c(O)c(Cl)c1 | ≤ 100
3 | [2H]C([2H])([2H])c1nc2c(C)ccc(NC(=O)c3cc(Cl)c(O)c(Cl)n3)c2c(=O)n1Cc1ccccc1OC(F)(F)F | ≤ 100
4 | O=C(Nc1ccc(Cl)c2ncn(Cc3ccccc3OC(F)(F)F)c(=O)c12)c1cc(Cl)c(O)c(Cl)c1 | ≤ 100
5 | Cc1ccc(NC(=O)c2cc(Cl)c(O)c(Cl)c2)c2c(=O)n(Cc3ccccc3C(F)(F)F)c(CF)nc12 | ≤ 100
6 | Cc1ccc(NC(=O)c2cc(Cl)c(O)c(Cl)n2)c2c(=O)n(Cc3ccccc3OC(F)(F)F)c(C)nc12 | ≤ 100
7 | O=C(Nc1cccc2ncn(Cc3cccc(C(F)(F)F)c3)c(=O)c12)c1cc(Cl)c(O)c(Cl)c1 | ≤ 100
8 | O=C(Nc1scnc1C(=O)NCc1ccccc1OC(F)(F)F)c1cc(Cl)c(O)c(Cl)n1 | ≤ 100
9 | Cc1ccc(NC(=O)c2cc(Cl)c(O)c(Cl)c2)c2c(=O)n(Cc3ccccc3C(F)(F)F)c(C(F)F)nc12 | ≤ 100
10 | O=C(Nc1ccc(F)c2ncn(Cc3ccccc3OC(F)(F)F)c(=O)c12)c1cc(Cl)c(O)c(Cl)c1 | ≤ 100
11 | O=C(Nc1cccc2ncn(Cc3ncccc3C(F)(F)F)c(=O)c12)c1cc(Cl)c(O)c(Cl)c1 | ≤ 100
12 | O=C(Nc1cccc2ncn(Cc3cccnc3C(F)(F)F)c(=O)c12)c1cc(Cl)c(O)c(Cl)c1 | ≤ 100
13 | Cc1nc2c(F)ccc(NC(=O)c3cc(Cl)c(O)c(Cl)c3)c2c(=O)n1Cc1ncccc1C(F)(F)F | ≤ 100
14 | Cc1ccc(NC(=O)c2cc(Cl)c(O)c(Cl)c2)c2c(=O)n(Cc3ccccc3OC(F)(F)F)cnc12 | ≤ 100
15 | O=C(Nc1cc(Cl)sc1C(=O)NCc1ccccc1OC(F)(F)F)c1cc(Cl)c(O)c(Cl)c1 | ≤ 100
16 | Cc1ccc(NC(=O)c2cc(Cl)c(O)c(Cl)c2)c2c(=O)n([C@@H]3CC[C@H]3c3ccccc3)c(C)nc12 | ≤ 100
17 | O=C(Nc1cc(Cl)sc1C(=O)NCCc1ccccc1OC(F)(F)F)c1cc(Cl)c(O)c(Cl)c1 | ≤ 500
18 | Cn1nc(CNC(=O)c2ncsc2NC(=O)c2cc(Cl)c(O)c(Cl)c2)c2ccccc21 | ≤ 100
19 | Cn1nc(Cn2cnc3cccc(NC(=O)c4cc(Cl)c(O)c(Cl)c4)c3c2=O)c2ccccc21 | ≤ 100
20 | O=C(Nc1ccc(F)c2ncn(Cc3ccccc3C(F)(F)F)c(=O)c12)c1cc(Cl)c(O)c(Cl)c1 | ≤ 100
21 | [2H]C([2H])(c1ccccc1C(F)(F)F)n1c(C)nc2c(C)ccc(NC(=O)c3cc(Cl)c(O)c(Cl)c3)c2c1=O | ≤ 100

Row | SMILES | IC50 [nM]
22 | C[C@@H](c1cccc(F)c1)n1cnc2cccc(NC(=O)c3cc(Cl)c(O)c(Cl)c3)c2c1=O | ≤ 100
23 | O=C(Nc1cccc2ncn(Cc3ccccc3-c3ccccn3)c(=O)c12)c1cc(Cl)c(O)c(Cl)c1 | ≤ 500
24 | O=C(Nc1cccc2ncn(C(c3ccccc3)c3ccccc3)c(=O)c12)c1cc(Cl)c(O)c(Cl)c1 | ≤ 100
25 | Cc1ccc(NC(=O)c2cc(Cl)c(O)c(Cl)c2)c2c(=O)n(Cc3ncccc3C(F)(F)F)c(C)nc12 | ≤ 100
26 | Cc1ccc(NC(=O)c2cc(Cl)c(O)c(Cl)c2)c2c(=O)n(Cc3ccccc3OC(F)(F)F)c(C)nc12 | ≤ 100
27 | O=C(Nc1cccc2ncn(Cc3ccccc3C(F)(F)F)c(=O)c12)c1cc(Cl)c(O)c(Cl)n1 | ≤ 100
28 | O=C(Nc1cccc2ncn(Cc3cccc(OC(F)(F)F)c3)c(=O)c12)c1cc(Cl)c(O)c(Cl)c1 | ≤ 100
29 | N#Cc1ccccc1Cn1cnc2cccc(NC(=O)c3cc(Cl)c(O)c(Cl)c3)c2c1=O | ≤ 100
30 | COc1ccccc1CCNC(=O)c1sccc1NC(=O)c1cc(Cl)c(O)c(Cl)c1 | ≤ 100
31 | O=C(Nc1cccc2ncn(Cc3ncccc3Cl)c(=O)c12)c1cc(Cl)c(O)c(Cl)c1 | ≤ 100
32 | [2H]C([2H])([2H])c1nc2c(C)ccc(NC(=O)c3cc(Cl)c(O)c(Cl)c3)c2c(=O)n1Cc1ccccc1OC(F)(F)F | ≤ 100
33 | O=C(Nc1cccc2ncn(Cc3n[nH]c4ccccc34)c(=O)c12)c1cc(Cl)c(O)c(Cl)c1 | ≤ 100
34 | Cc1nc2nccc(NC(=O)c3cc(Cl)c(O)c(Cl)c3)c2c(=O)n1Cc1ccccc1OC(F)(F)F | ≤ 100
35 | O=C(NCc1ccccc1OC(F)(F)F)C1CCCN1C(=O)c1cc(Cl)c(O)c(Cl)c1 (stereo not drawn) | > 10000
36 | Cc1nc2c(F)ccc(NC(=O)c3cc(Cl)c(O)c(Cl)n3)c2c(=O)n1Cc1ccccc1OC(F)(F)F | ≤ 100
37 | Cc1nc2c(Cl)ccc(NC(=O)c3cc(Cl)c(O)c(Cl)c3)c2c(=O)n1Cc1ccccc1C(F)(F)F | ≤ 100
38 | Cc1nc2c(F)ccc(NC(=O)c3cc(Cl)c(O)c(Cl)c3)c2c(=O)n1Cc1ccccc1OC(F)(F)F | ≤ 100
39 | O=C(Nc1scnc1C(=O)NCc1ccccc1C(F)(F)F)c1cc(Cl)c(O)c(Cl)c1 | ≤ 100
40 | O=C(N[C@H]1CCCC[C@@H]1C(=O)NCc1ccccc1OC(F)(F)F)c1cc(Cl)c(O)c(Cl)n1 | > 10000
41 | Cc1ccc(NC(=O)c2cc(Cl)c(O)c(Cl)c2)c2c(=O)n(Cc3ccccc3OC(F)(F)F)c(C(F)F)nc12 | ≤ 100
42 | O=C(Nc1cccc2ncn(Cc3ccccc3F)c(=O)c12)c1cc(Cl)c(O)c(Cl)n1 | ≤ 100

Row | SMILES | IC50 [nM]
43 | Cc1nc2cccc(NC(=O)c3cc(Cl)c(O)c(Cl)c3)c2c(=O)n1Cc1ccccc1OC(F)(F)F | ≤ 100
44 | O=C(Nc1scnc1C(=O)NCc1ccccc1OC(F)(F)F)c1cc(Cl)c(O)c(Cl)c1 | ≤ 100
45 | Cc1nsc(NC(=O)c2cc(Cl)c(O)c(Cl)c2)c1C(=O)N[C@@H](C)c1ccccc1F | ≤ 100
46 | O=C(Nc1cccc2ncn(Cc3ccn(-c4ccccc4F)n3)c(=O)c12)c1cc(Cl)c(O)c(Cl)c1 | ≤ 100
47 | C[C@@H](c1cccc(F)c1)n1cnc2cccc(NC(=O)c3cc(Cl)c(O)c(Cl)n3)c2c1=O | ≤ 100
48 | CN(C)CCOc1ccc(NC(=O)c2cc(Cl)c(O)c(Cl)c2)c(C(=O)NCc2ccccc2OC(F)(F)F)c1 | > 10000
49 | O=C(Nc1cccc2ncn(C3(c4ccccc4F)CC3)c(=O)c12)c1cc(Cl)c(O)c(Cl)c1 | ≤ 100
50 | O=C(Nc1cccc2ncn(Cc3cccc(F)c3)c(=O)c12)c1cc(Cl)c(O)c(Cl)n1 | ≤ 100
51 | C[C@H](c1cccc(F)c1)n1cnc2cccc(NC(=O)c3cc(Cl)c(O)c(Cl)c3)c2c1=O | ≤ 100
52 | Cn1c(=O)n(Cc2ccccc2OC(F)(F)F)c(=O)c2c(NC(=O)c3cc(Cl)c(O)c(Cl)c3)cccc21 | ≤ 100
53 | Cc1nc2c(F)ccc(NC(=O)c3cc(Cl)c(O)c(Cl)c3)c2c(=O)n1Cc1ccccc1C(F)(F)F | ≤ 100
54 | [2H]C([2H])([2H])c1nc2c(C)ccc(NC(=O)c3cc(Cl)c(O)c(Cl)c3)c2c(=O)n1Cc1ccccc1C(F)(F)F | ≤ 100
55 | O=C(Nc1scnc1C(=O)NCc1cccc(F)c1)c1cc(Cl)c(O)c(Cl)c1 | ≤ 100
56 | Cc1nc2c(F)ccc(NC(=O)c3cc(Cl)c(O)c(Cl)c3)c2c(=O)n1Cc1nn(C)c2ccccc12 | ≤ 100
57 | Cc1ccc(NC(=O)c2cc(Cl)c(O)c(Cl)c2)c2c(=O)n(Cc3ccccc3C(F)(F)F)c(C)nc12 | ≤ 100
58 | O=C(Nc1cccc2ncn(Cc3ccc(C(F)(F)F)cc3)c(=O)c12)c1cc(Cl)c(O)c(Cl)c1 | ≤ 100
59 | O=C(Nc1ccc(F)c2ncn(Cc3ccccc3C(F)(F)F)c(=O)c12)c1cc(Cl)c(O)c(Cl)n1 | ≤ 100
60 | Cc1ccc(NC(=O)c2cc(Cl)c(O)c(Cl)n2)c2c(=O)n(Cc3ccccc3OC(F)(F)F)c(C(F)F)nc12 | ≤ 100
61 | O=C(NCc1ccccc1OC(F)(F)F)C1CCCN1C(=O)c1cc(Cl)c(O)c(Cl)n1 (stereo not drawn) | > 10000
62 | O=C(Nc1cccc2ncn(Cc3ccccc3OC(F)(F)F)c(=O)c12)c1cc(Cl)c(O)c(Cl)c1 | ≤ 100
63 | O=C(Nc1cccc2ncn(Cc3ccccc3C(F)(F)F)c(=O)c12)c1cc(Cl)c(O)c(Cl)c1 | ≤ 100
